Measured values as given in ChEMBL document CHEMBL1201862, “PubChem BioAssay data set” (2004).
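Where inhibition never reached the appropriate level, the endpoint shown equals the highest concentration tested. Otherwise, values were interpolated linearly from a five-concentration, 48-hour dose response in 96-well plates. GI50 = concentration required for 50% inhibition of growth.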 Activity calls are given as the source filed them. Rule as the data show it: active = GI50 up to about 1.1 µM and inactive = higher.

Legend:
Experiment in all cases: inhibition of tumour cell growth, NCI panel, 48 h
KM12 = test system: KM12
NCI/ADR-RES = test system: NCI/ADR-RES
NCI-H522 = test system: NCI-H522
HT-29 = test system: HT-29
MCF7 = test system: MCF7
U-251 = test system: U-251
OVCAR-5 = test system: OVCAR-5
UO-31 = test system: UO-31
OVCAR-8 = test system: OVCAR-8
BT-549 = test system: BT-549
MDA-N = test system: MDA-N
MDA-MB-435 = test system: MDA-MB-435
SNB-19 = test system: SNB-19
DU-145 = test system: DU-145
UACC-257 = test system: UACC-257
M14 = test system: M14
CAKI-1 = test system: CAKI-1
NCI-H23 = test system: NCI-H23
A498 = test system: A498
Malme-3M = test system: Malme-3M
SR = test system: SR
786-0 = test system: 786-0
HCT-15 = test system: HCT-15
MOLT-4 = test system: MOLT-4
SW-620 = test system: SW-620
SF-295 = test system: SF-295
CCRF-CEM = test system: CCRF-CEM
NCI-H226 = test system: NCI-H226
OVCAR-3 = test system: OVCAR-3
NCI-H460 = test system: NCI-H460
TK-10 = test system: TK-10
HL-60 = test system: HL-60
HOP-62 = test system: HOP-62
SK-OV-3 = test system: SK-OV-3
A549 = test system: A549
HCT-116 = test system: HCT-116
K562 = test system: K562
MDA-MB-231 = test system: MDA-MB-231
IGROV-1 = test system: IGROV-1
T47D = test system: T47D
SF-539 = test system: SF-539
HCC 2998 = test system: HCC 2998
SN12C = test system: SN12C
COLO 205 = test system: COLO 205
SF-268 = test system: SF-268
ACHN = test system: ACHN
SNB-75 = test system: SNB-75
PC-3 = test system: PC-3
UACC-62 = test system: UACC-62
Hs-578T = test system: Hs-578T
SK-MEL-28 = test system: SK-MEL-28
SK-MEL-5 = test system: SK-MEL-5
SK-MEL-2 = test system: SK-MEL-2

## Oc1ccc2cc(Br)ccc2c1-c1c(O)ccc2ccc(Br)cc12
KM12
  GI50: 6.84 µM (inactive)
NCI/ADR-RES
  GI50: 13.6 µM (inactive)
NCI-H522
  GI50: 15.2 µM (inactive)
HT-29
  GI50: 3.07 µM (inactive)
MCF7
  GI50: 13 µM (inactive)
U-251
  GI50: 14.1 µM (inactive)
OVCAR-5
  GI50: 16.9 µM (inactive)
UO-31
  GI50: 15.3 µM (inactive)
OVCAR-8
  GI50: 14.4 µM (inactive)
BT-549
  GI50: 14.7 µM (inactive)
MDA-N
  GI50: 12.2 µM (inactive)
MDA-MB-435
  GI50: 16.2 µM (inactive)
SNB-19
  GI50: 15.4 µM (inactive)
DU-145
  GI50: 15.8 µM (inactive)
UACC-257
  GI50: 18.5 µM (inactive)
M14
  GI50: 17.8 µM (inactive)
CAKI-1
  GI50: 18.8 µM (inactive)
NCI-H23
  GI50: 14.4 µM (inactive)
A498
  GI50: 17.3 µM (inactive)
Malme-3M
  GI50: 13.4 µM (inactive)
SR
  GI50: 14.3 µM (inactive)
786-0
  GI50: 13.8 µM (inactive)
HCT-15
  GI50: 14.9 µM
MOLT-4
  GI50: 4.85 µM (inactive)
SW-620
  GI50: 11.7 µM (inactive)
SF-295
  GI50: 15.4 µM (inactive)
CCRF-CEM
  GI50: 13 µM (inactive)
NCI-H226
  GI50: 13.2 µM (inactive)
OVCAR-3
  GI50: 13.9 µM (inactive)
NCI-H460
  GI50: 4.12 µM (inactive)
TK-10
  GI50: 16.7 µM (inactive)
HL-60
  GI50: 5.42 µM (inactive)
HOP-62
  GI50: 14.7 µM (inactive)
SK-OV-3
  GI50: 12.2 µM (inactive)
A549
  GI50: 15.2 µM (inactive)
HCT-116
  GI50: 14.4 µM (inactive)
K562
  GI50: 18.5 µM (inactive)
MDA-MB-231
  GI50: 10 µM (inactive)
IGROV-1
  GI50: 8.3 µM (inactive)
T47D
  GI50: 12.7 µM (inactive)
SF-539
  GI50: 18.5 µM (inactive)
HCC 2998
  GI50: 6.52 µM (inactive)
SN12C
  GI50: 12 µM (inactive)
COLO 205
  GI50: 13.6 µM (inactive)
SF-268
  GI50: 20 µM (inactive)
ACHN
  GI50: 14.8 µM (inactive)
SNB-75
  GI50: 4.73 µM (inactive)
PC-3
  GI50: 12.6 µM (inactive)
UACC-62
  GI50: 17.3 µM (inactive)
Hs-578T
  GI50: 11.9 µM (inactive)
SK-MEL-28
  GI50: 18.7 µM (inactive)
SK-MEL-5
  GI50: 23 µM (inactive)
SK-MEL-2
  GI50: 16 µM (inactive)
